{
  "source": "ChEMBL document CHEMBL5465560",
  "about": "“Selectivity Literature for EUbOPEN Chemogenomic Library” (2024)",
  "key": {"[1]": {"biological_target": "T1, Aurora kinase A (Homo sapiens) (UniProt O14965)", "T1 sequence (whole entry)": "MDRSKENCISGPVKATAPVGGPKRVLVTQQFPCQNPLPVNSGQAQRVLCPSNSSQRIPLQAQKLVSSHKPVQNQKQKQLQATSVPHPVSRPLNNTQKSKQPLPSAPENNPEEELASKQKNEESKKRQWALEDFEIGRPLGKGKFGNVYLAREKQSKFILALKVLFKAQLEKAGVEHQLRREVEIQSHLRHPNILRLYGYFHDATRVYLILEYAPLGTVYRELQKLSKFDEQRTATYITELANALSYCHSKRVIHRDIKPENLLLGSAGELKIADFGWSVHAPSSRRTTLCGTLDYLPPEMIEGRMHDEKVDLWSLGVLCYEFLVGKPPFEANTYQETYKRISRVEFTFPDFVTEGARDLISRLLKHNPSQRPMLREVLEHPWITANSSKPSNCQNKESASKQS", "test": "Selectivity interaction (KinomeScan (DiscoverX)) EUB0000655a STK6", "details": "at 10 µM"}, "[2]": {"biological_target": "Tyrosine-protein kinase JAK2 (Homo sapiens, UniProt O60674)", "test": "Selectivity interaction (KinomeScan (DiscoverX)) EUB0000655a JAK2", "details": "at 10 µM"}, "[3]": {"biological_target": "Serine/threonine-protein kinase B-raf (Homo sapiens) (UniProt P15056)", "details": "at 10 µM"}, "[4]": {"biological_target": "Serine/threonine-protein kinase PAK 3 (Homo sapiens) (UniProt O75914)", "details": "at 10 µM"}, "[5]": {"biological_target": "Epidermal growth factor receptor (Homo sapiens, UniProt P00533)", "sequence (P00533 whole entry)": "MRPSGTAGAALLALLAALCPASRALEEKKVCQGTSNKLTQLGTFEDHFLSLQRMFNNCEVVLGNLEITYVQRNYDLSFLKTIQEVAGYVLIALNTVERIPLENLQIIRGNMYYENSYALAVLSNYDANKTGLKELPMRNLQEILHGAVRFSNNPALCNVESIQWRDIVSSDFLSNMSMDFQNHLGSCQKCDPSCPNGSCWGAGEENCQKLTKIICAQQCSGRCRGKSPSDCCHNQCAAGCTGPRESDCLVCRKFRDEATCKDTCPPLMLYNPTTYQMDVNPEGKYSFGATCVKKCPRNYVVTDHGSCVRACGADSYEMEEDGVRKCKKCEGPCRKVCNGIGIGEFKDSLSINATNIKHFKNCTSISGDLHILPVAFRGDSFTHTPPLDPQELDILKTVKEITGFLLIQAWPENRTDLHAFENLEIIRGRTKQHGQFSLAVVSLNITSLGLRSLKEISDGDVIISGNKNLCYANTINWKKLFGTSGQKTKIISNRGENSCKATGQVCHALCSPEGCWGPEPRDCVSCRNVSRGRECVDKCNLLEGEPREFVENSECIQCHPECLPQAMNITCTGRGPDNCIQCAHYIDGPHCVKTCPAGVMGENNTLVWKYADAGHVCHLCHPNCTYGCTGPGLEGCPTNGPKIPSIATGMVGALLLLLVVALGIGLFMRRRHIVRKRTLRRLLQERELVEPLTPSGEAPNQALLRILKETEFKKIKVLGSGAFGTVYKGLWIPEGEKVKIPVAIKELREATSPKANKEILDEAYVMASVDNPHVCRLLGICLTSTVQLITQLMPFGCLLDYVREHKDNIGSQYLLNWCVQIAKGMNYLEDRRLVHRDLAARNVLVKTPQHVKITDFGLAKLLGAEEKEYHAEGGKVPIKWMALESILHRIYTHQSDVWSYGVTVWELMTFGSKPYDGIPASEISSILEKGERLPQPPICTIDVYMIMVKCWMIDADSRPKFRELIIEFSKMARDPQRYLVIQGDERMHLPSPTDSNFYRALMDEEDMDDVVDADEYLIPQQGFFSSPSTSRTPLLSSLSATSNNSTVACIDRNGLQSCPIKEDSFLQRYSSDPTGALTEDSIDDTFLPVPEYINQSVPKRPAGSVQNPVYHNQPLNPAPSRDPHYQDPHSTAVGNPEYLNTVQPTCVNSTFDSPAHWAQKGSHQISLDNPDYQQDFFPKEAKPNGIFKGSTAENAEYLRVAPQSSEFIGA", "test": "(§1) Selectivity interaction (Kinase panel (Z-LYTE Assay)) EUB0001632a EGFR", "details": "at 10 µM"}, "[6]": {"test_system": "Epidermal growth factor receptor (Homo sapiens), P00533 [L861Q]", "test": "as §1", "details": "at 10 µM"}, "[7]": {"test_system": "Epidermal growth factor receptor (Homo sapiens), P00533 [T790M]", "sequence (P00533 whole entry T790M)": "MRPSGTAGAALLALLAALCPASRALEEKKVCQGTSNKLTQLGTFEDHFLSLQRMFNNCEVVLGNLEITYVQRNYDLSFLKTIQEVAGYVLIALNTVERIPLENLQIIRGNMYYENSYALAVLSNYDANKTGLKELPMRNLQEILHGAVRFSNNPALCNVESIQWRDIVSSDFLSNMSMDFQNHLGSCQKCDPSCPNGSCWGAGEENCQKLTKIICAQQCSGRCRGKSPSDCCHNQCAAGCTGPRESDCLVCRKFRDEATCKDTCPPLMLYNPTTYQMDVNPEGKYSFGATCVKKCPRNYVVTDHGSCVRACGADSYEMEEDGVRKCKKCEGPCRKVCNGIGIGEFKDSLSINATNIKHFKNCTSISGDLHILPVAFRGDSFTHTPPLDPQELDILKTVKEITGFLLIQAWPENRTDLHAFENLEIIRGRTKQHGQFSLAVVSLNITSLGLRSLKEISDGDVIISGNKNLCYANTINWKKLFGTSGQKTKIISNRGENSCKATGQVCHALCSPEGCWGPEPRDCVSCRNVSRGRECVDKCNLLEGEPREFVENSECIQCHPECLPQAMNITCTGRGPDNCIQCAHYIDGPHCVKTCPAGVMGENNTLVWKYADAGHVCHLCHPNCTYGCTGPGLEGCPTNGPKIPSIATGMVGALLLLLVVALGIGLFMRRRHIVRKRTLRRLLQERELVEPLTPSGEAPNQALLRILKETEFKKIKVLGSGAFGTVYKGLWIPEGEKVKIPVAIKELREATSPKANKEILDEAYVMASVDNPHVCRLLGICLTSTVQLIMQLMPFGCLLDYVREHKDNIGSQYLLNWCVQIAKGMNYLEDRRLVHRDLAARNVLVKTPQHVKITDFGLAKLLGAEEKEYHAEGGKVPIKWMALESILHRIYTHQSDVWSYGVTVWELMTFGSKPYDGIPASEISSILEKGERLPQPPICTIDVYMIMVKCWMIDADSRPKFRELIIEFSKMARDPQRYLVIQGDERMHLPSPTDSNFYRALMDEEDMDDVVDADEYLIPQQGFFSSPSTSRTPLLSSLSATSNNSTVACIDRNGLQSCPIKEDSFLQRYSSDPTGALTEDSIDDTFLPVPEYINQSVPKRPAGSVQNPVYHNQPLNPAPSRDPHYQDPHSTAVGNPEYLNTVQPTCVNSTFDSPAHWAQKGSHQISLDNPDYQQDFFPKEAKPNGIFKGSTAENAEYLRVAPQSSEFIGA", "test": "as §1", "details": "at 10 µM"}, "[8]": {"test_system": "Epidermal growth factor receptor (Homo sapiens), P00533 [L858R]", "sequence (P00533 whole entry L858R)": "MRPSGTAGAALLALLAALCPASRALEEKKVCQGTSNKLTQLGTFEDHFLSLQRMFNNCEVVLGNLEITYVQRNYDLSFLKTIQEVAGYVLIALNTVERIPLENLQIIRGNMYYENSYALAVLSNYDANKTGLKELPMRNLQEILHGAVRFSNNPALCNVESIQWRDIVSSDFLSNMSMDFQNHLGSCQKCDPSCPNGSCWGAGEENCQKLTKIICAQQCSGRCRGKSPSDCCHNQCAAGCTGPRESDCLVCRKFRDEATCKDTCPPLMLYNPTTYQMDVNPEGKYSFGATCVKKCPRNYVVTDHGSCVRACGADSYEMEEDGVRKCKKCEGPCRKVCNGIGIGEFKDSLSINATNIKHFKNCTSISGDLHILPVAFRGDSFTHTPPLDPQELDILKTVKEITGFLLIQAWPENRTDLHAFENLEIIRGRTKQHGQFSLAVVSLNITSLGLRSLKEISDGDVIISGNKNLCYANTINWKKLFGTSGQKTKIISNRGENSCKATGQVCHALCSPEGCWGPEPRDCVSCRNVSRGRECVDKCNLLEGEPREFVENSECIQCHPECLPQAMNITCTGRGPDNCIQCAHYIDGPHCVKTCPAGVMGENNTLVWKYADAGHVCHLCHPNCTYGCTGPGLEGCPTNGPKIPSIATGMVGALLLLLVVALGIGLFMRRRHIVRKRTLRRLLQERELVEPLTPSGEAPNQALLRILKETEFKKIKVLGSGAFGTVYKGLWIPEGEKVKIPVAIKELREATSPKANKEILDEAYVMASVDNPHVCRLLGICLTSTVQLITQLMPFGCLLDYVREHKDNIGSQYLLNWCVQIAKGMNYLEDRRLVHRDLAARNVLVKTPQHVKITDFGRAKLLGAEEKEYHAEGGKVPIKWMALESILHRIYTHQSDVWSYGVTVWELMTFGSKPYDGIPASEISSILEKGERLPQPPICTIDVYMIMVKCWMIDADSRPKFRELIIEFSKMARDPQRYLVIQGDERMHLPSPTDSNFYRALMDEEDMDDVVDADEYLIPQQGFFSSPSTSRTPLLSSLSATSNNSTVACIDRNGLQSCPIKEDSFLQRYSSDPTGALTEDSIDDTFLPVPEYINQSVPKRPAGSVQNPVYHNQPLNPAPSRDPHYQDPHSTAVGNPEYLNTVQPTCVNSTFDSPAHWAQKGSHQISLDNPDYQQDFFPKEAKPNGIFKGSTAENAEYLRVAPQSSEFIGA", "test": "as §1", "details": "at 10 µM"}, "[9]": {"test_system": "Epidermal growth factor receptor (Homo sapiens), P00533 [L858R,T790M]", "test": "as §1", "details": "at 10 µM"}, "[10]": {"biological_target": "Serine/threonine-protein kinase 26 (Homo sapiens, UniProt Q9P289)", "sequence (Q9P289 2-416 limits assumed)": "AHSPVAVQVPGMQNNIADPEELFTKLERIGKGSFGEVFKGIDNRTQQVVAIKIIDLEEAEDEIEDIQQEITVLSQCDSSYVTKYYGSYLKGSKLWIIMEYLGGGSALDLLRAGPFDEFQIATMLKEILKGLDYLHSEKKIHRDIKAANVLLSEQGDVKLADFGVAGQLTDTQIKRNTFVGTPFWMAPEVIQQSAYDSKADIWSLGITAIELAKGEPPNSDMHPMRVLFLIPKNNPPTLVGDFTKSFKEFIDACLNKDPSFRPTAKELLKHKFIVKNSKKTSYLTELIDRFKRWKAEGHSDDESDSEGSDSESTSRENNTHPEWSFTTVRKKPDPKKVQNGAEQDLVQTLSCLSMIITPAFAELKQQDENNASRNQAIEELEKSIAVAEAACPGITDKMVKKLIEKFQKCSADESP", "test": "Selectivity interaction (SelectScreen profiling (Invitrogen)) EUB0000607a STK26", "details": "at 2 µM"}, "[11]": {"biological_target": "Ribosomal protein S6 kinase alpha-4 (Homo sapiens) (UniProt O75676)", "sequence (O75676 whole entry, looked up)": "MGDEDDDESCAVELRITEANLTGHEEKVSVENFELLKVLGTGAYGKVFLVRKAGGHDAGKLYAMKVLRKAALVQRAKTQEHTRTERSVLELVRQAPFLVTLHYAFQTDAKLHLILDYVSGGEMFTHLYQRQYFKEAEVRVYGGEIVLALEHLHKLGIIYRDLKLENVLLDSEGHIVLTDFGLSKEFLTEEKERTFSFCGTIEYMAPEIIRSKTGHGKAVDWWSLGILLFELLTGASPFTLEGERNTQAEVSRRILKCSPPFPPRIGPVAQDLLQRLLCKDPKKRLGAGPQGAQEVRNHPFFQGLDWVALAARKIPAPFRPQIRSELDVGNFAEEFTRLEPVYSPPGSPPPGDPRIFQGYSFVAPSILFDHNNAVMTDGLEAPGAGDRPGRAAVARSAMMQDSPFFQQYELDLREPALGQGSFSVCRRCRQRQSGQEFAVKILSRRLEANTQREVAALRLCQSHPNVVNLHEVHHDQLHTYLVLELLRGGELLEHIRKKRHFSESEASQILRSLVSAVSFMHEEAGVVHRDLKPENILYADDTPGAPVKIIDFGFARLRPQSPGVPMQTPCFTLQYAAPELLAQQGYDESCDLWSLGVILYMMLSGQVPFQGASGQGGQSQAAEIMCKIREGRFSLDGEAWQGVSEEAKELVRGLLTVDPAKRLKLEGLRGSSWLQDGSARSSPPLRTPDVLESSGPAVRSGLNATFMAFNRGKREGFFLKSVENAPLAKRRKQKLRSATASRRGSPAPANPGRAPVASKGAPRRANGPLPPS", "test": "Selectivity interaction (KinomeScan (DiscoverX)) EUB0001049a RPS6KA4", "details": "at 1 µM"}, "[12]": {"biological_target": "T2, Mitogen-activated protein kinase 15 (Homo sapiens) (UniProt Q8TD08)", "T2 sequence (whole entry)": "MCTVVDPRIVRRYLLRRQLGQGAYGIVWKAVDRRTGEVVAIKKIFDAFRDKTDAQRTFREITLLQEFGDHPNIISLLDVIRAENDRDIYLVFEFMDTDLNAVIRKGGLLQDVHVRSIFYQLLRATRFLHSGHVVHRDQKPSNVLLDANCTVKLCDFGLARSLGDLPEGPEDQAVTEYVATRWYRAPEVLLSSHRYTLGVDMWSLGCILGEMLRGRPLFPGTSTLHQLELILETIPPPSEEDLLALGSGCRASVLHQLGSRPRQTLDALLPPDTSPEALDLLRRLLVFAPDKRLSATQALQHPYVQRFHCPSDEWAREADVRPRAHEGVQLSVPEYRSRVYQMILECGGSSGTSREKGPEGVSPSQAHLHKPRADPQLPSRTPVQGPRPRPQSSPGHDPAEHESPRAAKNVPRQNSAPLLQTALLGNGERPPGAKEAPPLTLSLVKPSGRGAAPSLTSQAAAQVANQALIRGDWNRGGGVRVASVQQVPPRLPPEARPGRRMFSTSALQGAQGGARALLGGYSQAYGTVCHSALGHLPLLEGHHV", "test": "Selectivity interaction (KinomeScan (DiscoverX)) EUB0000595a MAPK15", "details": "at 10 µM"}, "[13]": {"biological_target": "Mitogen-activated protein kinase 10 (Homo sapiens, UniProt P53779)", "test": "Selectivity interaction (KinomeScan (DiscoverX)) EUB0000618a MAPK10", "details": "at 10 µM"}, "[14]": {"biological_target": "Interferon-induced, double-stranded RNA-activated protein kinase (Homo sapiens) (UniProt P19525)", "test": "Selectivity interaction (Ambit KINOMEscan and KiNATiv profiling in Jurkat cells) EUB0000090b EIF2AK2", "type": "cell-based", "details": "at 1 µM"}, "[15]": {"biological_target": "T3, Phosphatidylinositol 5-phosphate 4-kinase type-2 alpha (Homo sapiens) (UniProt P48426)", "T3 sequence (whole entry)": "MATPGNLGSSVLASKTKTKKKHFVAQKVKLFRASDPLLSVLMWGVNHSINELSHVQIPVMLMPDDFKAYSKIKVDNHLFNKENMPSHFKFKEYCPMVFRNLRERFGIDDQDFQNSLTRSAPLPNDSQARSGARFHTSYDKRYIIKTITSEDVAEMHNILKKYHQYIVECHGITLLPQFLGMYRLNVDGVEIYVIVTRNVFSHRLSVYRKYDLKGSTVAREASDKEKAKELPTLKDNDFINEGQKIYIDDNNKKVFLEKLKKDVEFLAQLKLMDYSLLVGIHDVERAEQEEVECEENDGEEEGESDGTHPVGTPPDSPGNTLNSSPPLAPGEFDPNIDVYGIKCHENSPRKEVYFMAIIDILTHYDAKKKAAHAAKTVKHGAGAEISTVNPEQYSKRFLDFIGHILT", "test": "Selectivity interaction (ActivX KiNativ screen (ex vivo kinase selectivity in human PBMCs)) EUB0001619a PIP4K2A", "type": "cell-based", "details": "PBMC, at 1 µM"}},
  "data": [
    {"molecule": "CN(C)CCOc1ccc(-c2nc(-c3ccncc3)c(-c3ccc4c(c3)CC/C4=N\\O)[nH]2)cc1", "values": [
      {"measurement": "% of control", "setting": "[1]", "value": 90, "unit": "%"},
      {"measurement": "% of control", "setting": "[2]", "value": 70, "unit": "%"}
    ]},
    {"molecule": "Cc1cc([C@@H](C)Nc2ccccc2C(=O)O)c2nc(N3CCOCC3)cc(=O)n2c1", "note": "[AZD-6482]", "values": [
      {"measurement": "% of control", "setting": "[3]", "value": 100, "unit": "%"},
      {"measurement": "% of control", "setting": "[4]", "value": 98, "unit": "%"}
    ]},
    {"molecule": "Cn1cc(-n2cnc3c(NCc4nc5cc(Cl)c(Cl)cc5[nH]4)nc(N4CCOCC4)nc32)cn1", "values": [
      {"measurement": "% of control", "setting": "[5]", "value": 3.08, "unit": "%"},
      {"measurement": "% of control", "setting": "[6]", "value": 9.07, "unit": "%"},
      {"measurement": "% of control", "setting": "[7]", "value": 1.29, "unit": "%"},
      {"measurement": "% of control", "setting": "[8]", "value": 3.58, "unit": "%"},
      {"measurement": "% of control", "setting": "[9]", "value": 5.81, "unit": "%"}
    ]},
    {"molecule": "CNC(=O)Nc1ccc(-c2nc(N3CC4CCC(C3)O4)c3cnn(C4CCC5(CC4)OCCO5)c3n2)cc1", "values": [
      {"measurement": "% of inhibition", "setting": "[10]", "value": 7, "unit": "%"}
    ]},
    {"molecule": "COc1cc(Nc2nc(C)cc(-c3cnn4nc(OC)ccc34)n2)cc(C(F)(F)F)c1", "values": [
      {"measurement": "% of control", "setting": "[11]", "value": 84, "unit": "%"}
    ]},
    {"molecule": "COCC(=O)NC/C=C/c1ccc2ncnc(Nc3ccc(Oc4ccc(C)nc4)c(C)c3)c2c1", "note": "[CP-724714]", "values": [
      {"measurement": "% of control", "setting": "[12]", "value": 100, "unit": "%"}
    ]},
    {"molecule": "O[C@H]1CC[C@H](Nc2ncc3nc(Nc4c(F)cc(F)cc4F)n([C@H]4CCOC4)c3n2)CC1", "values": [
      {"measurement": "% of control", "setting": "[13]", "value": 0, "unit": "%"}
    ]},
    {"molecule": "CN(C)C/C=C/C(=O)Nc1ccc(C(=O)N2CCCC(Nc3ncc(Cl)c(-c4c[nH]c5ccccc45)n3)C2)cc1", "note": "(stereo not given)", "values": [
      {"measurement": "% of control", "setting": "[14]", "value": 92, "unit": "%"}
    ]},
    {"molecule": "N#Cc1cccc(-c2c[nH]c3ncnc(N4CCOCC4)c23)c1", "values": [
      {"measurement": "% of inhibition", "setting": "[15]", "value": 16, "unit": "%"}
    ]}
  ]
}
